Results on seven compounds are retold here after patent US20240148821A1, “PHARMACEUTICAL USE OF CYCLIC PEPTIDE COMPOUND” (CHUGAI SEIYAKU KABUSHIKI KAISHA, priority 2021, published 2024).

Structures are written as SMILES. Bridge positions count the residues as written; N and C are the ends. Square brackets hold non-standard residues; d marks the D form. Peptide text beside a SMILES is read from it. * marks the point of attachment. hPhe(3-Cl-4-CF3) = N[C@@H](CCc1ccc(C(F)(F)F)c(Cl)c1)C(=O)O; hPhe(3-F,4-CF3) = N[C@@H](CCc1ccc(C(F)(F)F)c(F)c1)C(=O)O; Phe(4-CF3) = N[C@@H](Cc1ccc(C(F)(F)F)cc1)C(=O)O; NMePhe(4-Me) = CN[C@@H](Cc1ccc(C)cc1)C(=O)O; Phe(4-Cl) = N[C@@H](Cc1ccc(Cl)cc1)C(=O)O; Phe(3-I) = N[C@@H](Cc1cccc(I)c1)C(=O)O; NMeAla(cPr) = CN[C@@H](CC1CC1)C(=O)O; Phe(2-Me) = Cc1ccccc1C[C@H](N)C(=O)O; NMeCha = CN[C@@H](CC1CCCCC1)C(=O)O; Gly(N-(CH2)2OEt) = CCOCCNCC(=O)O; NMeD = CN[C@@H](CC(=O)O)C(=O)O; NMeL = CN[C@@H](CC(C)C)C(=O)O; NMeV = CN[C@H](C(=O)O)C(C)C; d(β3hA) = C[C@@H](N)CC(=O)O; NMeAib = CNC(C)(C)C(=O)O; Piperidide = C1CCN(*)CC1; Pyrrolidide = C1CCN(*)C1; Ac5c = NC1(C(=O)O)CCCC1; Aze = O=C(O)[C@@H]1CCN1; Sar = CNCC(=O)O

This assay deals with Human pancreatic cancer cell line AsPC-1 (G12D mutation Kras). Description: AsPC-1 cell growth inhibition (AsPC-1 CGI). It counts as cell-based. The conditions noted are these: read-out: AsPC-1 cell growth inhibition, 50% growth inhibitory concentration (IC50 value); 96 hours, CellTiter-Glo, values classified in ranges. A general note: Cellular ATP, detected with luciferase, serves as a proxy for viable cell number.
Method: Test compounds were serially dilated with dimethyl sulfoxide, and 200 nL was then dispensed to a U-bottom 96-well plate using Labcyte Echo. […] The cell suspension was dispensed to a. plate containing a test compound at 100 μL per well and incubated at 37° C. in a 5% carbon dioxide gas incubator. 96 hours later, 80 μL of CellTiter-Glo (Promega) was added to each well and fluorescence was measured.
On to `CC[C@H](C)[C@@H]1NC(=O)[C@H](CC(C)C)N(C)C(=O)C[C@@H](C(=O)N2CCCC2)N(C)C(=O)[C@H](CC(C)C)NC(=O)C(C)(C)N(C)C(=O)[C@H](CC(C)C)NC(=O)[C@H](CCc2ccc(C(F)(F)F)c(F)c2)NC(=O)CN(C)C(=O)[C@H](CC2CCCCC2)N(C)C(=O)CN(C)C(=O)CN(C)C1=O` [Compound 312] ([NMeL]I[Sar][Sar][NMeCha][Sar][hPhe(3-F,4-CF3)]L[NMeAib]L[NMeD]-Pyrrolidide; lactam N-11), for which the IC50 was over 0.5 µM.

For `CC[C@H](C)[C@@H]1NC(=O)[C@H](CC(C)C)N(C)C(=O)C[C@@H](C(=O)N2CCCCC2)N(C)C(=O)[C@H](CC(C)C)NC(=O)C(C)(C)N(C)C(=O)[C@H](Cc2ccc(OC)cc2)NC(=O)[C@H](Cc2cccc(I)c2)NC(=O)CN(C)C(=O)[C@H](CC2CCCCC2)N(C)C(=O)CN(C)C(=O)CN(C)C1=O` [Compound 320] ([NMeL]I[Sar][Sar][NMeCha][Sar][Phe(3-I)]Y(Me)[NMeAib]L[NMeD]-Piperidide; lactam N-11), the IC50 is over 0.5 µM. Then `CC[C@H](C)[C@@H]1NC(=O)[C@H](CC(C)C)N(C)C(=O)C[C@@H](C(=O)N2CCCCC2)N(C)C(=O)[C@H](C(C)C)N(C)C(=O)C2(CCCC2)NC(=O)[C@@H]2CCCN2C(=O)[C@H](CCc2ccc(C(F)(F)F)c(Cl)c2)NC(=O)CN(C)C(=O)[C@H](CC2CC2)N(C)C(=O)CN(C)C(=O)CN(C)C1=O` [Compound 325] ([NMeL]I[Sar][Sar][NMeAla(cPr)][Sar][hPhe(3-Cl-4-CF3)]P[Ac5c][NMeV][NMeD]-Piperidide; lactam N-11), with over 0.5 µM. Then `CCOCCN1CC(=O)N(C)CC(=O)N(C)[C@@H](CC2CCCCC2)C(=O)N(C)CC(=O)N[C@@H](CCc2ccc(C(F)(F)F)c(Cl)c2)C(=O)N2CCC[C@H]2C(=O)NC2(CCCC2)C(=O)N(C)[C@@H](C(C)C)C(=O)N[C@H](C)CC(=O)N(C)[C@@H](CC(C)C)C(=O)N[C@@H]([C@@H](C)CC)C1=O` [Compound 329] (cyclo([Ac5c][NMeV][d(β3hA)][NMeL]I[Gly(N-(CH2)2OEt)][Sar][NMeCha][Sar][hPhe(3-Cl-4-CF3)]P)), with over 0.5 µM; and `CC[C@H](C)[C@@H]1NC(=O)[C@H](CC(C)C)N(C)C(=O)C[C@@H](C(=O)N2CCCCC2)N(C)C(=O)[C@H](CC(C)C)NC(=O)C(C)(C)N(C)C(=O)[C@H](Cc2ccc(Cl)cc2)NC(=O)[C@H](Cc2cccc(I)c2)NC(=O)CN(C)C(=O)[C@H](CC2CCCCC2)N(C)C(=O)CN(C)C(=O)CN(C)C1=O` [Compound 330] ([NMeL]I[Sar][Sar][NMeCha][Sar][Phe(3-I)][Phe(4-Cl)][NMeAib]L[NMeD]-Piperidide; lactam N-11), with over 0.5 µM; and `CC[C@H](C)[C@@H]1NC(=O)[C@H](CC(C)C)N(C)C(=O)C[C@@H](C(=O)N2CCCCC2)N(C)C(=O)[C@H](CC(C)C)NC(=O)C(C)(C)N(C)C(=O)[C@H](Cc2ccccc2C)NC(=O)[C@H](Cc2cccc(I)c2)NC(=O)CN(C)C(=O)[C@H](Cc2ccc(C)cc2)N(C)C(=O)[C@@H]2CCN2C(=O)CN(C)C1=O` [Compound 335] ([NMeL]I[Sar][Aze][NMePhe(4-Me)][Sar][Phe(3-I)][Phe(2-Me)][NMeAib]L[NMeD]-Piperidide; lactam N-11), with over 0.5 µM. Then `CC[C@H](C)[C@@H]1NC(=O)[C@H](CC(C)C)N(C)C(=O)C[C@@H](C(=O)N2CCCCC2)N(C)C(=O)[C@H](CC(C)C)NC(=O)C(C)(C)N(C)C(=O)[C@H](Cc2ccc(C(F)(F)F)cc2)NC(=O)[C@H](Cc2cccc(I)c2)NC(=O)CN(C)C(=O)[C@H](CC2CCCCC2)N(C)C(=O)CN(C)C(=O)CN(C)C1=O` [Compound 336] ([NMeL]I[Sar][Sar][NMeCha][Sar][Phe(3-I)][Phe(4-CF3)][NMeAib]L[NMeD]-Piperidide; lactam N-11), with over 0.5 µM.
